Reference: patent publication US6525059B1, “Substituted pyrazoles as p38 kinase inhibitors” (G. D. Searle & Company, priority 1998, dated 2003)
Read-outs that look alike come from different tables or passages of the source.

Tests used:
human p38 kinase alpha = target: T1, human p38 kinase alpha (Homo sapiens, UniProt Q16539); assay: p38 kinase in vitro assay, phosphorylation of biotinylated PHAS-I with gamma 32P-ATP; assay type: biochemical; conditions: for inhibition at 1 µM / inhibition at 10 µM: read-out: P38 alpha kinase % inhib @ conc.
T1 construct: The coding region of the human p38a cDNA was obtained by PCR-amplification from RNA isolated from the human monocyte cell line THP.1; GST (N); made in house; host or cells: E. coli DH10B
T1 sequence (Q16539 whole entry): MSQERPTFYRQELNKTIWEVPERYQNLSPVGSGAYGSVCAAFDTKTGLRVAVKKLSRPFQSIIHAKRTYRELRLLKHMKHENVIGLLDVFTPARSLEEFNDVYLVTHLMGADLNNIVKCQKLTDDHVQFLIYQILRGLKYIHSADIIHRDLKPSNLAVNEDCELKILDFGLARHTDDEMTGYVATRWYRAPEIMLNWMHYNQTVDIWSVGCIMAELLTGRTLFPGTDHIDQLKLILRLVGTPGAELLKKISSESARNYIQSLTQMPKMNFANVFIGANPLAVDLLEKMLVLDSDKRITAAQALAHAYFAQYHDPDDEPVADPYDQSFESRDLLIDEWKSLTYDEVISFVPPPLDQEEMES
In short: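 Radiometric filter-capture read-out: streptavidin plates trap biotin-PHAS-I labelled by activated (MKK6) human p38α from γ-32P-ATP. Buffer 25 mM HEPES pH 7.5, 10 mM magnesium acetate, 50 μM cold ATP; reactions 1 h or overnight at 30 °C; inhibitors 10-fold dilutions 100 to 0.001 μM, triplicates, 1% DMSO.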

TNF-α = assay: LPS stimulation of TNF production by U937 cells; assay type: cell-based, human; conditions: for inhibition at 1 µM: U-937, @ 1.0 uM, read-out: U937 Cell % inhib @ conc.
Protocol: Fifty million cells in 100 ml media were induced to terminal monocytic differentiation by 24 hour incubation with 20 ng/ml phorbol 12-myristate 13-acetate (Sigma). The cells were washed by centrifugation (200×g for 5 min) and resuspended in 100 ml fresh medium. After 24-48 hours, the cells were harvested, centrifuged, and resuspended in culture medium at 2 million cells/ml.
Compounds were prepared as 10 mM stock solutions in DMSO and diluted in culture medium to yield a final DMSO concentration of 0.1% in the cell assay. LPS (E coli, 100 ng/ml final concentration) was then added at a volume of 0.02 ml. After 4 hour incubation at 37° C., the amount of TNF-α released in the culture medium was quantitated by ELISA. Inhibitory potency is expressed as IC50 (μM).
In vitro whole cell assay for measuring the ability of the compounds to inhibit TNF production in human U937 cells stimulated with LPS are shown in the column identified as: […]

[1] = read-out: P38 alpha kinase IC50
[2] = Homo sapiens, U-937, TNF production, LPS-stimulated human U937 cells, read-out: U937 Cell IC50

SMILES | IC50 (TNF-α; [2]) [nM] | inhibition at 1 µM (human p38 kinase alpha; @ 1.0 uM) [%] | inhibition at 1 µM (TNF-α; Homo sapiens) [%] | also measured
Clc1ccc(-c2n[nH]cc2-c2ccncc2)cc1Cl [Example A-297, 4-[3-(3,4-dichlorophenyl)-1H-pyrazol-4-yl]pyridine] | – | – | – | IC50 (human p38 kinase alpha; p38α in vitro, PHAS-I assay procedure, read-out: p38^1 IC50): 520 nM; IC50 (TNF-α; Homo sapiens, U-937, LPS-stimulated U937 cells, read-out: U937 IC50): 170 nM
CC(C)COC(=O)NCc1[nH]nc(-c2ccc(F)cc2)c1-c1ccncc1 [Example B-0009] | 720 | – | – | IC50 (human p38 kinase alpha; [1]): 40 nM
CC(C)C(=O)NCc1[nH]nc(-c2ccc(F)cc2)c1-c1ccncc1 [Example B-0010] | 650 | – | – | IC50 (human p38 kinase alpha; [1]): 520 nM
COc1ccccc1C(=O)NCc1[nH]nc(-c2ccc(F)cc2)c1-c1ccncc1 [Example B-0011] | 4470 | – | – | IC50 (human p38 kinase alpha; [1]): 30 nM
C=CCOC(=O)NCc1[nH]nc(-c2ccc(F)cc2)c1-c1ccncc1 [Example B-0033] | – | – | – | P38 alpha kinase % inhib @ conc. (human p38 kinase alpha; @ 1.0 uM): 97.0% @ 1.0 uM; IC50 (TNF-α; TNF production, LPS-stimulated human U937 cells, read-out: U937 Cell IC50): 10000 nM
CC(=O)OC(C)(C)C(=O)NCc1[nH]nc(-c2ccc(F)cc2)c1-c1ccncc1 [Example B-0043] | 540 | – | – | IC50 (human p38 kinase alpha; [1]): 220 nM
CC(=O)NCc1[nH]nc(-c2ccc(F)cc2)c1-c1ccncc1 [Example B-0044] | 190 | – | – | IC50 (human p38 kinase alpha; [1]): 140 nM
O=C(NCc1[nH]nc(-c2ccc(F)cc2)c1-c1ccncc1)c1ccc(Cl)nc1 [Example B-0052] | – | 92 | 15 | –
Cc1onc(-c2c(F)cccc2Cl)c1C(=O)NCc1[nH]nc(-c2ccc(F)cc2)c1-c1ccncc1 [Example B-0055] | > 1000 | 93 | – | –
Cc1onc(-c2ccccc2Cl)c1C(=O)NCc1[nH]nc(-c2ccc(F)cc2)c1-c1ccncc1 [Example B-0056] | – | 96 | 21 | –
CCCC(CCC)C(=O)NCc1[nH]nc(-c2ccc(F)cc2)c1-c1ccncc1 [Example B-0057] | – | 96 | 29 | –
O=C(NCc1[nH]nc(-c2ccc(F)cc2)c1-c1ccncc1)c1sc2ccccc2c1Cl [Example B-0058] | – | 79 | 18 | –
O=C(NCc1[nH]nc(-c2ccc(F)cc2)c1-c1ccncc1)c1cccc(OC(F)(F)F)c1 [Example B-0060] | – | 73 | 22 | –
CCCCCCCC(=O)NCc1[nH]nc(-c2ccc(F)cc2)c1-c1ccncc1 [Example B-0064] | – | 90 | 4 | –
O=C(NCc1[nH]nc(-c2ccc(F)cc2)c1-c1ccncc1)C1CCC1 [Example B-0066] | – | 94 | 28 | –
COc1ccc(C(=O)NCc2[nH]nc(-c3ccc(F)cc3)c2-c2ccncc2)cc1OC [Example B-0068] | – | 72 | 22 | –
O=C(NCc1[nH]nc(-c2ccc(F)cc2)c1-c1ccncc1)c1ccc(Cl)c(Cl)c1 [Example B-0071] | – | 86 | 31 | –
O=C(NCc1[nH]nc(-c2ccc(F)cc2)c1-c1ccncc1)c1cccc(Br)c1 [Example B-0073] | – | 91 | 24 | –
O=C(CCc1ccccc1)NCc1[nH]nc(-c2ccc(F)cc2)c1-c1ccncc1 [Example B-0076] | – | 58 | 21 | –
COC(=O)CCC(=O)NCc1[nH]nc(-c2ccc(F)cc2)c1-c1ccncc1 [Example B-0077] | 10000 | – | – | IC50 (human p38 kinase alpha; [1]): 800 nM
COC(=O)CCCC(=O)NCc1[nH]nc(-c2ccc(F)cc2)c1-c1ccncc1 [Example B-0078] | – | 80 | 20 | –
O=C(NCc1[nH]nc(-c2ccc(F)cc2)c1-c1ccncc1)C1CCCC1 [Example B-0079] | – | 93 | 13 | –
CSCCC(=O)NCc1[nH]nc(-c2ccc(F)cc2)c1-c1ccncc1 [Example B-0081] | – | 92 | 13 | –
CC(=O)O[C@@H](C)C(=O)NCc1[nH]nc(-c2ccc(F)cc2)c1-c1ccncc1 [Example B-0083] | 6510 | – | – | IC50 (human p38 kinase alpha; [1]): 220 nM
COc1cc(C(=O)NCc2[nH]nc(-c3ccc(F)cc3)c2-c2ccncc2)cc(OC)c1OC [Example B-0085] | – | 83 | 21 | –
COC(=O)CCCCCCC(=O)NCc1[nH]nc(-c2ccc(F)cc2)c1-c1ccncc1 [Example B-0088] | – | 96 | 9 | –
O=C(NCc1[nH]nc(-c2ccc(F)cc2)c1-c1ccncc1)C1CC1 [Example B-0089] | 3330 | – | – | IC50 (human p38 kinase alpha; [1]): 40 nM

SMILES | IC50 (TNF-α; [2]) [nM] | inhibition at 1 µM (human p38 kinase alpha; @ 1.0 uM) [%] | inhibition at 1 µM (TNF-α; Homo sapiens) [%] | also measured
CCOC(=O)CCCC(=O)NCc1[nH]nc(-c2ccc(F)cc2)c1-c1ccncc1 [Example B-0096] | – | 91 | 22 | –
CC(C)(C)c1ccc(S(=O)(=O)NCc2[nH]nc(-c3ccc(F)cc3)c2-c2ccncc2)cc1 [Example B-0099] | > 1000 | 43 | – | –
CCCCS(=O)(=O)NCc1[nH]nc(-c2ccc(F)cc2)c1-c1ccncc1 [Example B-0100] | 5000 | 75 | – | –
O=[N+]([O-])c1cc(S(=O)(=O)NCc2[nH]nc(-c3ccc(F)cc3)c2-c2ccncc2)ccc1Cl [Example B-0102] | – | 81 | 15 | –
O=S(=O)(NCc1[nH]nc(-c2ccc(F)cc2)c1-c1ccncc1)c1cc(Cl)cc(Cl)c1O [Example B-0103] | – | 71 | 6 | –
O=S(=O)(NCc1[nH]nc(-c2ccc(F)cc2)c1-c1ccncc1)c1ccc(F)cc1 [Example B-0104] | 2780 | 56 | – | –
CCS(=O)(=O)NCc1[nH]nc(-c2ccc(F)cc2)c1-c1ccncc1 [Example B-0105] | 5000 | 78 | – | –
CC(C)S(=O)(=O)NCc1[nH]nc(-c2ccc(F)cc2)c1-c1ccncc1 [Example B-0106] | 5000 | 62 | – | –
CS(=O)(=O)NCc1[nH]nc(-c2ccc(F)cc2)c1-c1ccncc1 [Example B-0107] | 5000 | – | – | IC50 (human p38 kinase alpha; [1]): 270 nM
COC(=O)c1ccccc1S(=O)(=O)NCc1[nH]nc(-c2ccc(F)cc2)c1-c1ccncc1 [Example B-0108] | 4850 | 61 | – | –
O=S(=O)(NCc1[nH]nc(-c2ccc(F)cc2)c1-c1ccncc1)c1ccc2ccccc2c1 [Example B-0110] | – | 66 | 13 | –
O=S(=O)(NCc1[nH]nc(-c2ccc(F)cc2)c1-c1ccncc1)c1cccc2ccccc12 [Example B-0111] | > 1000 | 57 | – | –
O=[N+]([O-])c1cccc(S(=O)(=O)NCc2[nH]nc(-c3ccc(F)cc3)c2-c2ccncc2)c1 [Example B-0114] | 3920 | 45 | – | –
Cc1ccc(S(=O)(=O)NCc2[nH]nc(-c3ccc(F)cc3)c2-c2ccncc2)cc1 [Example B-0118] | 1290 | – | – | IC50 (human p38 kinase alpha; [1]): 1180 nM
O=S(=O)(/C=C\c1ccccc1)NCc1[nH]nc(-c2ccc(F)cc2)c1-c1ccncc1 [Example B-0119] | 2780 | – | – | inhibition at 10 µM (human p38 kinase alpha): 89%
CN(C)c1cccc2c(S(=O)(=O)NCc3[nH]nc(-c4ccc(F)cc4)c3-c3ccncc3)cccc12 [Example B-0122] | – | – | 2 | inhibition at 10 µM (human p38 kinase alpha): 79%
CC(C)c1ccc(S(=O)(=O)NCc2[nH]nc(-c3ccc(F)cc3)c2-c2ccncc2)cc1 [Example B-0123] | > 1000 | 59 | – | –
Cc1c(Cl)cccc1S(=O)(=O)NCc1[nH]nc(-c2ccc(F)cc2)c1-c1ccncc1 [Example B-0124] | – | 73 | 15 | –
CCCCOc1ccc(S(=O)(=O)NCc2[nH]nc(-c3ccc(F)cc3)c2-c2ccncc2)cc1 [Example B-0129] | – | 51 | 31 | –
CCc1ccc(S(=O)(=O)NCc2[nH]nc(-c3ccc(F)cc3)c2-c2ccncc2)cc1 [Example B-0132] | – | 76 | 8 | –
O=S(=O)(NCc1[nH]nc(-c2ccc(F)cc2)c1-c1ccncc1)c1ccc(F)cc1F [Example B-0134] | 2170 | 60 | – | –
COc1ccc(S(=O)(=O)NCc2[nH]nc(-c3ccc(F)cc3)c2-c2ccncc2)c([N+](=O)[O-])c1 [Example B-0141] | – | 78 | 10 | –
CCCCCCCCS(=O)(=O)NCc1[nH]nc(-c2ccc(F)cc2)c1-c1ccncc1 [Example B-0142] | – | 86 | 12 | –
CSc1cccc(NC(=O)NCc2[nH]nc(-c3ccc(F)cc3)c2-c2ccncc2)c1 [Example B-0145] | – | – | 12 | inhibition at 10 µM (human p38 kinase alpha): 54%
O=C(NCc1[nH]nc(-c2ccc(F)cc2)c1-c1ccncc1)NC(=O)c1ccccc1 [Example B-0146] | – | – | 28 | inhibition at 10 µM (human p38 kinase alpha): 77%
CC(C)NC(=O)NCc1[nH]nc(-c2ccc(F)cc2)c1-c1ccncc1 [Example B-0149] | 10000 | – | – | IC50 (human p38 kinase alpha; [1]): 1150 nM
